In paper PMC6255377, “New 1-Aryl-3-Substituted Propanol Derivatives as Antimalarial Agents” (Molecules, 2009):
pIC50: −log10 of the molar value. Read-outs that look alike come from different tables or passages of the source.

Columns and labels:
P. berghei ANKA strain = type: in vivo; conditions: for GIP of P. bergei (growth inhibition percentage): 10 mg/kg/day, positive control; for appearance / toxicity in treated mice: in vivo
Protocol: The in vivo antimalarial activity of the compounds was measured by the classical 4-day suppressive test. Briefly, on day 0, groups of five NMRI male mice, weighing 20 ± 2 g each, were inoculated with 2 × 10^7 red blood cells RBCs infected by erythrocytic stages of rodent malaria parasite P. berghei ANKA strain. Two hours later, each group of mice was treated intraperitoneally with a dose of 50 mg/kg of the selected compound, previously prepared in DMSO. Treatment was continued from day 1 to day 3, always at similar times. On day 4, Giemsa-stained thin blood smears from the tail of the mice were prepared and microscopically examined with 1,000× magnification. The mean of the parasitemia of each group was calculated in a total of 1,000 RBCs, and the growth inhibition percentage of parasite was estimated in relation to the control group, which received only the solvent of the products. % inhibition = [(Par control – Par comp)/(Par control)] × 100

[1] = test system: P. falciparum 3D7 strain, chloroquine sensitive; assay: In vitro antimalarial activity screening (SYBR Green I micromethod); type: cell-based; conditions: Plasmodium falciparum, read-out: P. falciparum 3D7 IC50
Protocol: The SYBR^©GreenI-based micromethod was followed for testing the antimalarial activity of the compounds. Erythrocytic stages of P. falciparum 3D7 strain, chloroquine sensitive, were maintained in RPMI 1640 culture medium supplemented with 0.5% Albumax II at 37 °C in an atmosphere with 5% CO2. […] Next, stock solutions of each compound were prepared in DMSO and diluted in RPMI medium in order to obtain concentrations from 10 to 0.01 µg/mL. […] All compounds and controls were placed in triplicate. The plate was incubated under the same conditions. After 48 h, the plate was removed from the incubator and frozen for at least 1 h at -70 °C and then thawed. Finally, 100 µL of SYBR^©GreenI in lysis buffer (0.2 µL/mL) was added per well and shaken for 5 minutes or until no precipitated erythrocytes were observed. The plate was left to stand in the dark for 1 h at room temperature. Fluorescence intensity (FI) for each well was measured. The background of the nonparasitized erythrocytes was subtracted from each well tested.

Murine J774 macrophages = assay: Nonspecific cytotoxicity test (MTT); type: cell-based; conditions: 10 µg/mL, 24 h exposure
Protocol: Murine J774 macrophages were maintained in RPMI 1640 medium supplemented with 10% FBS at 37 °C in a 5% CO2 atmosphere. First, in a flat bottom 96-well microplate, 100 µL of macrophage suspension in RPMI medium, containing 5 × 10^4 cells, were distributed per well. The cells were allowed to attach for 24 h at 37 °C. Next, the medium was replaced by different concentrations of the compounds in 200 µL of medium, or DMSO at the same concentration as growth control, and the cells were exposed to the compounds solutions for another 24 h. Each concentration was assayed three times. Afterwards, the medium was eliminated and 100 µL/well of 3-(4,5-dimethythiazol-2-yl)-2,5-diphenyltetrazolium bromide (MTT) solution, 0.4 mg/mL in PBS, was added and the plates were returned to incubator for 1 h. The suspension was removed and the toxic effect of the compounds was assessed by the reduction of MTT to formazan crystals (as a cell viability indicator); said crystals were solubilized by adding 100 µL of DMSO. Finally, the optical density (OD) was measured at 595 nm and the toxicity percentage was calculated as follows:% toxicity = [(O.D.control - O.D.comp)/(O.D.control)] × 100

[2] = test system: ferriprotoporphyrin IX biomineralization; parameters: method as in PMID 12128052; conditions: read-out: IC50 in the FBIT test; cited from earlier work
[3] = 3D7, Table 1, 48 h incubation, mean of two experiments in triplicate
[4] = 3D7, Table 2, 48 h incubation, mean of two experiments in triplicate

| Compound | pIC50 [1, 3] | melting point | other results |
| --- | --- | --- | --- |
| CCN(CC)CCCC(C)Nc1ccnc2cc(Cl)ccc12 (centres unmarked) [Chloroq., Chloroquine, reference compound] | – | – | GIP of P. bergei (growth inhibition percentage) (P. berghei ANKA strain; four-day treatment, NMRI male mice): 100% at 10 mg/kg; GIP of P. bergei (growth inhibition percentage) (P. berghei ANKA strain; four-day treatment, NMRI male mice, listed as chloroquine): GIP = Growth inhibition percentage of the rodent malaria parasite after a four-day treatment. 10 mg/kg/day of chloroquine, positive control, inhibited 100% the growth parasite. ^a Toxic = death of more than half of the animals in the tested group.; pIC50 ([1]; 3D7, 48 h): 7.10 |
| OC(CCN1CCN(c2cccc3ccccc23)CC1)c1csc2ccc(F)cc12 (centres unmarked) [Compound 12] | 6.80 | – | appearance / toxicity in treated mice (P. berghei ANKA strain): the appearance of the mice was good |
| COc1ccccc1N1CCN(CCC(O)c2csc3ccc(F)cc23)CC1 (centres unmarked) [Compound 15] | 6.48 | – | appearance / toxicity in treated mice (P. berghei ANKA strain): looked unhealthy and showed clear evidence of weight loss |
| Cc1ccc2cccc(N3CCN(CCC(O)c4csc5ccc(F)cc45)CC3)c2n1 (centres unmarked) [Compound 23] | 6.42 | – | appearance / toxicity in treated mice (P. berghei ANKA strain): looked unhealthy and showed clear evidence of weight loss |
| O=[N+]([O-])c1ccc(N2CCC(NCCC(O)c3csc4ccccc34)CC2)c(C(F)(F)F)c1 (centres unmarked) [Compound 31, 1-(Benzo[b]thiophen-3-yl)-3-[1-(4-nitro-2-trifluoromethylphenyl)piperidin-4-ylamino]propan-1-ol] | 6.72 | – | GIP of P. bergei at 50 mg/kg/day (growth inhibition percentage) (P. berghei ANKA strain; 50 mg/kg/day intraperitoneally, four-day treatment, NMRI male mice): Toxic; appearance / toxicity in treated mice (P. berghei ANKA strain; male, NMRI, mouse, 4 days): cytotoxicity of compound 31 was confirmed in the in vivo test; cytotoxicity on murine macrophages J774 (Murine J774 macrophages): showed toxicity |
| C=C[C@H]1C[N@@]2CC[C@H]1C[C@H]2[C@H](O)c1ccnc2ccc(OC)cc12 [quinine] | – | – | pIC50 [2]: 3.49 |

Further lines, with some results ahead:

| pIC50 [1, 3] | melting point | Compound | other results |
| --- | --- | --- | --- |
| 6.00 | 153 to 155 °C | O=[N+]([O-])c1ccc(N2CCC(NCCC(O)c3csc4ccccc34)CC2)cc1 (centres unmarked) [Compound 33, 1-(Benzo[b]thiophen-3-yl)-3-(1-(4-nitrophenyl)piperidin-4-ylamino)propan-1-ol] | – |
| 5.46 | 47 to 48 °C | O=[N+]([O-])c1ccc(N2CCCN(CCC(O)c3csc4ccccc34)CC2)cc1 (centres unmarked) [Compound 34, 1-(Benzo[b]thiophen-3-yl)-3-(4-(4-nitrophenyl)-1,4-diazepan-1-yl)propan-1-ol] | – |
| 6.21 | 155 to 156 °C | OC(CCN1CCN(c2cnc3ccccc3n2)CC1)c1csc2ccccc12 (centres unmarked) [Compound 35, 1-(Benzo[b]thiophen-3-yl)-3-(4-(quinoxalin-2-yl)piperazin-1-yl)propan-1-ol] | – |
| – | 169 to 170 °C | OC(CCN1CCN(c2ccc(Cl)cc2)CC1)c1ccc(-c2ccccc2)cc1 (centres unmarked) [Compound 38, 1-(4-Phenyl)phenyl-3-[4-(4-chlorophenyl)piperazin-1-yl]propan-1-ol] | pIC50 [1, 4]: < 4.70 |
| – | 109 to 110 °C | COc1ccccc1N1CCN(CCC(O)c2ccc(-c3ccccc3)cc2)CC1 (centres unmarked) [Compound 40, 1-(4-Phenyl)phenyl-3-[4-(2-methoxyphenyl)piperazin-1-yl]propan-1-ol] | pIC50 [1, 4]: 4.83 |
| – | 188 to 189 °C | COc1ccccc1N1CCN(CCC(O)c2c[nH]c3ccccc23)CC1 (centres unmarked) [Compound 41, 1-(3-Indolyl)-3-[4-(2-methoxyphenyl)piperazin-1-yl]propan-1-ol] | pIC50 [1, 4]: < 4.70 |
